According to patent US20170037425A1, “METHOD FOR IMPROVING PLANT TRAIT” (SHANGHAI INSTITUTES FOR BIOLOGICAL SCIENCES, CHINESE …, priority 2012, published 2017):

Columns and labels:
Brassica [1] = test: Chlorophyll fluorescence and P700 oxidation-reduction in transgenic Brassica; type: in vivo, Brassica napus L.
Protocol: Electron transfer efficiency of leaves was measured by chlorophyll fluorescence. The change of chlorophyll fluorescence parameter was monitored with PAM-2000 fluorometer (Walz, Effeltrich, Germany). Electron transfer efficiency of leaves in response to light was measured after 30-min-dark adaption, Fo represents minimum PSII fluorescence after measuring light is turned on. Fm represents maximum PSII fluorescence after a saturating pulse of white light is turned on. The photochemical efficiency of PSII was calculated with the equation: ΦPSII=(Fm′−Fs)/Fm′ (Genty, B., Briantais, J. M., Baker, N. R. (1989). The relationship between the quantum yield of photosynthetic electron transport and quenching of Chl fluorescence. Biochimica et Biophysica Acta, 990, 87-92). The excitation pressure of chlorophyll was calculated with the equation: 1−qL=1−(Fm′−Fs)/(Fm′−Fo)×Fo′/Fs (Kramer, D. M., Johnson, G., Kiirats, O., Edwards, G. E. (2004) New fluorescence parameters for the determination of Q(A) redox state and excitation energy fluxes. Photosynthesis Research, 79, 209-218).
PAM chlorophyll fluorometer with ED-P700 DW-E light absorb unit was used to measure the change of the light absorb at 810-830 nm, then the change of oxidation-reduction state of P700 was obtained. […]

Brassica [2] = test: Net photosynthetic rate of transgenic Brassica; type: in vivo, Brassica napus L.; conditions: for net photosynthetic rate, increase compared with wild type: transgenic Brassica
Protocol: Gas exchange was measured using photosynthetic infrared gas analysis system (LI-6400, Li-Cor Inc, Lincoln, Nebr., USA). The net photosynthetic rate (Pn) and stomatal conductance (Gs) was measured. Sunlight and artificial light were used as artificial light sources for measurement. The ambient CO2 during the measurements was controlled at 400 μmol mol^−1. The ambient temperature was controlled at the temperature for plant growth. Six leaves were measured for each line of plant. In addition, for the CO2 response curve of the plant leaf, the light intensity was set at PPFD of 1500 μmol m^−2s^−1 with artificial light source. The Pn under 50-1200 ppm CO2 was measured.

[3] = Electron donation by pre-illuminated LEAT protein (NAD+/NADP+ reduction); type: biochemical
Protocol: FIG. 1. The effects of light on NAD^+ or NAPD^+ reduction by YFP.
It was reported that proteins such as GFP can function as electron donor to reduce the oxidized small compounds such as NAD^+, potassium ferricyanide, and some proteins such as cytochrome c, and FAD-containing proteins (Bogdanov A. M. et al, 2009, Nature Chemical Biology. 5:459-461), The invertors used E. coli to express and purify recombinant proteins. […] Quinone reduction under light was analyzed by monitoring the decrease of absorption at 436 nm.

Brassica [4] = test: Leaf absorption spectrum of transgenic Brassica; type: in vivo, Brassica napus L.; conditions: different light intensities
Protocol: Reflectance and transmittance of Brassica leaves under different light intensities were measured using fiber optic spectrometer with an integrating sphere (Ocean Optics, Britain). The absorbance of the leaves under different light intensities was calculated with the equation: absorbance=100%) (without leaf)−transmittance−reflectance.

[5] = test system: Atp B, D1, Psa D, Lhcb1, Lhca1 and cyt f; test: Western blot of photosynthesis related proteins in transgenic Brassica leaves; type: in vivo, Brassica napus L.
Brassica [6] = test: Millisecond-delayed light emission in transgenic Brassica leaves; type: in vivo, Brassica napus L.; conditions: white light and green light
Protocol: Measurements of millisecond-delayed light emission were carried out according to the method described in Chen et al., 2010 (Reversible association of ribulose-1,5-bisphosphate carboxylase/oxygenase activate with the thylakoid membrane depends upon the ATP level and pH in rice without heat stress. Journal of Experimental Botany 61: 2939-2950). Leaf samples with same size were treated in dark for same time and millisecond-delayed light emission was measured in situ. The leaf sample was illuminated with light passing through holes arranged on two rotating wheels, so that the measurement can be partitioned into consecutive cycles of 1 ms excitation by light followed by 4.6 ms darkness. The delayed light emission between 2.8 and 3.8 ms after every flash was recorded. The white light source was supplied by a halogen lamp, and the green light source was obtained by passing the white light source through a 530 nm filter.

Brassica [7] = test: Redox metabolites (NAD+/NADH, NADP+/NADPH, GSSG/GSH, ASC/DHA) in transgenic Brassica leaves; type: in vivo, Brassica napus L.; conditions: transgenic Brassica transferred from red+blue light to white light
Protocol: Leaves were from the 4-week-old Brassica plants grown under white light or red+blue light, or 2 h after being switched from red+blue light to white light. Extraction of metabolites from leaves and measurement of NAD^+/NADH, NADP^+/NADPH, GSSG/GSH and ASC/DHA follows G. Queval, G. Noctor, Anal Biochem. 363, 58 (2007).

Brassica [8] = test: State transition of leaves and thylakoids of transgenic Brassica; type: in vivo, Brassica napus L.
Protocol: State transition of leaves was measured using PAM-101/PDA100 fluorometer (Walz) as described in (L. Dietzel et al., The Plant Cell 23, 2964 (Aug. 1, 2011). PSII light with a PFD of 100 μmol m^−2s^−1 was provided by a Schott KL-1500 lamp (Walz). PSI light with a PFD of 6 μmol m^−2s^−1 was provided by PAM-101 (Walz). The half-time (t1/2) of state 1-state 2 transition was determined by calculate the decrease of the fluorescence after PSI light was switched off. The half-time for state 2-state 1 transition was determined following L. Dietzel et al., The Plant Cell 23, 2964 (Aug. 1, 2011). Thylakoids isolated from Brassica leaves were added into STN buffer supplemented with 10 mM ATP in a final concentration of 5-10 μg/ml. Half of thylakoids were illuminated and half of the thylakoids were treated in dark for 20-30 min in room temperature, respectively. Chlorophyll α fluorescence emission spectra were recorded at 77K (in liquid nitrogen) using F-4600 spectrofluorometer (Hitachi, Japan), The excitation wavelength was set at 435 nm. Data were the average of four measurements.

## mCherry: red fluorescent protein, amino acid sequence SEQ ID NO: 2
Brassica [1]; transgenic Brassica leaves
  initial rate of P700^+ reduction (PSI cyclic electron transport) vs WT: much higher
Brassica [1]; transgenic Brassica transferred from red+blue light to white light
  photochemical efficiency of PSII (ΦPSII): increased
Brassica [2]; phytotron-grown transgenic Brassica, white light and green light
  net photosynthesis rate vs WT: significantly increased
Brassica [2]; transgenic Brassica in natural field conditions, different light intensities
  net photosynthesis rate vs WT and empty vector: significantly increased
Brassica [2]; 400 μmol m^−2s^−1
  net photosynthetic rate, increase compared with wild type: 31%
Brassica [2]; 800 μmol m^−2s^−1
  net photosynthetic rate, increase compared with wild type: 28%
Brassica [2]; 1200 μmol m^−2s^−1
  net photosynthetic rate, increase compared with wild type: 16%
[3]
  function as electron donor under light: cannot continuously provide electrons under light
Brassica [4]
  light energy absorbed by leaves: significantly increased
[5]; transgenic Brassica grown under red+blue light
  expression of photosynthesis related proteins vs WT: no significant difference
[5]; transgenic Brassica grown under white light
  expression of photosynthesis related proteins vs WT: significantly increased
Brassica [6]
  slow phase of millisecond delay light evolution (ms-DLE) vs WT: higher
Brassica [7]
  content of reduced metabolites or ratio of reduced to oxidized metabolites (NADH, NADPH, ascorbate, GSH): increased
Brassica [8]; transgenic Brassica grown under red+blue light, 77K fluorescence
  state transition of thylakoid membrane: no significant difference
Brassica [8]; transgenic Brassica grown under white light, 77K fluorescence
  percentage of state transition of thylakoid membrane: increased
Brassica [8]; transgenic Brassica live leaf
  t0.5 for state transition between St1 and St2: significantly decreased
